# According to US20220023773A1, “COMPOSITIONS COMPRISING 2-[(1R,6R)-6-ISOPROPENYL-3-METHYLCYCLOHEX-2-EN-1-YL]-3-HYDROXY-5-PENTYLPHENOLATE” (Natural Extraction Systems, LLC, priority 2018, published 2022):
# What was measured:
# Type in all cases: physicochemical
# [1] = pH stability of the phenolate in water (color change purple to yellow-brown)
# Procedure: 1 gram of 1R,6R CBD was dissolved in 6.6 milliliters of 0.5 molar potassium hydroxide (0.5 M KOH) in ethanol to produce 2-[(1R,6R)-6-isopropenyl-3-methylcyclohex-2-en-1-yl]-3-hydroxy-5-pentylphenolate. The solution was then diluted with 100 millimolar sodium carbonate (100 mM Na2CO3) in water to a final volume of 50 milliliters and a 2-[(1R,6R)-6-isopropenyl-3-methylcyclohex-2-en-1-yl]-3-hydroxy-5- pentylphenolate concentration of approximately 20 grams per liter. 0.5 milliliters of the 2-[(1R,6R)-6-isopropenyl-3-methylcyclohex-2-en-1-yl]-3-hydroxy-5-pentylphenolate solution was added to each of 25 test tubes containing 9.5 milliliters of 0.1 molar carbonate/bicarbonate (CO3^2−/HCO3^−) buffer according to Table 1. Each test tube contained approximately 10 milligrams of 2-[(1R,6R)-6-isopropenyl-3-methylcyclohex-2-en-1-yl]-3-hydroxy-5-pentylphenolate at a concentration of approximately 1 gram per liter, approximately 0.66% ethanol by weight, trace potassium ion, and variable sodium ion, carbonate ion, and bicarbonate ion. pH's were confirmed by multiple different measurements. […]
# [2] = Determining the approximate pKa of 1R,6R CBD by color at varying sodium bicarbonate concentration; details: distilled water with sodium bicarbonate, under the test conditions, from color change
# Procedure: Example 2. Determining the approximate pKa of IR, 6R CBD 0.5 milliliters of the 20 gram-per-liter solution of 2-[(1R,6R)-6-isopropenyl-3-methylcyclohex-2-en-1-yl]-3-hydroxy-5-pentylphenolate described in Example 1 was diluted with 9.5 milliliters of distilled water comprising varying concentrations of sodium bicarbonate, and color was monitored as shown in Table 2. pH's were confirmed by multiple different measurements.
# [3] = Commercial viability of beverages comprising the phenolate (appearance in bottled water)
# Procedure: 20 milliliters of water was removed from a 1 liter bottle of ESSENTIA® OVERACHIEVING H2O®. ESSENTIA® OVERACHIEVING H2O® contains purified water, sodium bicarbonate, dipotassium phosphate, magnesium sulfate, and calcium chloride, and its pH was determined to be about 9.5. The 20 milliliters of removed water was replaced with 20 milliliters of the 20 gram-per-liter solution of 2-[(1R,6R)-6-isopropenyl-3-methylcyclohex-2-en-1-yl]-3-hydroxy-5-pentylphenolate, which is described in Example 1, and the bottle was hermetically sealed using the screw cap top of the bottle to produce a hermetically-sealed container comprising approximately 400 milligrams of 2-[(1R,6R)-6-isopropenyl-3-methylcyclohex-2-en-1-yl]-3-hydroxy-5-pentylphenolate. The pH of the liquid was measured and determined to be about 10. […] 5 milliliters of water was removed from a 500 milliliter bottle of DASANI® purified water.
# DANSANI® purified water contains purified water, magnesium sulfate, potassium chloride, and sodium chloride, and its pH was determined to be about 7.0. The 5 milliliters of removed water was replaced with 5 milliliters of the 20 gram-per-liter solution of 2-[(1R,6R)-6-isopropenyl-3-methylcyclohex-2-en-1-yl]-3-hydroxy-5-pentylphenolate, which is described in Example 1, and the bottle was hermetically sealed using the screw cap top of the bottle to produce a hermetically-sealed container comprising approximately 100 milligrams of 2-[(1R,6R)-6-isopropenyl-3-methylcyclohex-2-en-1-yl]-3-hydroxy-5-pentylphenolate. The pH of the liquid was measured and determined to be about 9.5.
# 0.5 milliliters of water was removed from a 500 milliliter bottle of DASANI® purified water. DANSANI® purified water contains purified water, magnesium sulfate, potassium chloride, and sodium chloride, and its pH was determined to be about 7.0. […] The pH of the liquid was measured and determined to be about 8.5.
SMILES,"pKa ([1]; suggested from absence of color change, at least in dilute aqueous solutions (alternative: kinetic trapping))",pKa [2],"color change from purple (phenolate) to yellow-brown (1R,6R CBD) ([1]; pH's of 9.1 and above, approximately 1 gram per liter in 0.1 molar carbonate/bicarbonate buffer, approximately 0.66% ethanol)","appearance of the liquid ([3]; approximately 10 milligrams in 500 milliliter bottle of DASANI purified water, pH about 8.5)","appearance of the liquid ([3]; approximately 100 milligrams in 500 milliliter bottle of DASANI purified water, pH about 9.5)","appearance of the liquid ([3]; approximately 400 milligrams in 1 liter bottle of ESSENTIA OVERACHIEVING H2O, pH about 10)"
"C=C(C)[C@@H]1CCC(C)=C[C@H]1c1c(O)cc(CCCCC)cc1O [1R,6R CBD, 2-[(1R,6R)-6-isopropenyl-3-methylcyclohex-2-en-1-yl]-5-pentylbenzene-1,3-diol, reference compound]",< 9.1,8 to 8.5,–,–,–,–
"C=C(C)[C@@H]1CCC(C)=C[C@H]1c1c(O)cc(CCCCC)cc1O [2-[(1R,6R)-6-isopropenyl-3-methylcyclohex-2-en-1-yl]-3-hydroxy-5-pentylphenolate]",–,–,No color change,transparent and lacked discernable color,transparent and purple,purple and transparent
